Test results as given in patent US10376558B2, “Method and compositions for synchronizing time of insemination in gilts” (UNITED-AH II, LLC, priority 2012, dated 2019).

Tests used:
[1] = test system: gilts; assay: Example 5: estrus detection after 100, 200 or 400 mcg triptorelin gel; assay type: in vivo, swine; conditions: raw average, PTK 2-07
Method: (§1) All gilts were individually fed MATRIX® as a top-dress for 14 or 15 days at the recommended rate of 15 mg/gilt/day. Gilts were withdrawn from MATRIX® feeding (last top-dress in the morning on Day 0) and allocated to each of the following treatments. Controls were vehicle gel treated (vehicle gel without triptorelin) at 120 (+/−2) hours following MATRIX® withdrawal (last top dress). The other gilts were given 100, 200 or 400 mcg triptorelin as the acetate in a methylcellulose gel formulation 120 (+/−2) hours following MATRIX® withdrawal. The four treatments were:
For post-treatment estrus detection, gilts were housed in individual pens. Boars were housed in separate rooms, and/or at least 12 m away and downwind. To elicit signs of estrus, a mature boar was walked slowly in the alley in front of the gilts' crates, exposing each test gilt to visual, auditory and olfactory signals from the boar for up to 5 minutes. In keeping with standard practice at commercial farms, while the boar was near the front of the gilt's crate, estrus was tested by an experienced person applying back pressure to the midsection of the gilt combined with side rubbing. Estrus was confirmed when a gilt stood rigidly to the back pressure, with no vocalization and with some indication of an ear reflex. Gilts were not exposed to boars during the first three days after withdrawal of MATRIX® (Day 0 to Day 2). Estrus detection was performed daily on all gilts from Day 3 to Day 7.
(§2) A single 2 mL dose of triptorelin gel or vehicle gel was deposited within approximately 1-2 cm posterior to the cervix with a catheter similar to those used for artificial insemination. The dose was delivered using a standard multi-dose applicator attached to the catheter. A new disposable sheath, which surrounds the catheter, was used for each gilt.

[2] = test system: gilts; assay: Example 5: ovulation monitoring by transrectal ultrasonography after 100, 200 or 400 mcg triptorelin gel at 120 h post-MATRIX; assay type: in vivo, swine; conditions: for Percentage ovulated by 48 hours: after treatment; for Time at which ovulation detected: relative to time of triptorelin gel treatment, Least Squares Mean ± SE; for % of Sows Ovulating / Interval from MATRIX Withdrawal to Ovulation: raw average, PTK 2-07
Method: as §1
2. TG 100: 100 mcg (2 mL 50 mcg/mL) triptorelin gel at 120 (+/−2) hours after MATRIX® withdrawal.
3. TG 200: 200 mcg (2 mL 100 mcg/mL) triptorelin gel at 120 (+/−2) hours after MATRIX® withdrawal.
4. TG 400: 400 mcg (2 mL 200 mcg/mL) triptorelin gel at 120 (+/−2) hours after MATRIX® withdrawal.
Ovulation was monitored twice on Day 5 (8 hours and 16 hours post-treatment) and every 8 hours on Day 6 and Day 7 or until ovulation was confirmed or 176 hours following last MATRIX® feeding. The ovulatory status of all gilts was monitored by transrectal ultrasonography. An Aloka 500 ultrasound machine is used for this purpose, with a 7.5 MHz linear array transducer attached to a fixed-angle PVC stabilizing rod to facilitate insertion into the rectum. The transducer and PVC rod are coated with a gynecological lubricant and gently inserted into the rectum until the ovaries can be visualized, one at a time. The diameters of the three largest follicles were recorded (to the nearest 0.1 mm) at each scanning. A gilt was declared to have ovulated when the number of large follicles (≥6.5 mm) fell to less than 3.
as §2

[3] = 100 mcg T at 120 h after MATRIX withdrawal
[4] = 200 mcg T at 120 h after MATRIX withdrawal
[5] = 400 mcg T at 120 h after MATRIX withdrawal
[6] = 100 mcg T (n = 6 catheterized gilts)
[7] = 200 mcg T (n = 7 catheterized gilts)

`CC(C)C[C@H](NC(=O)[C@@H](Cc1c[nH]c2ccccc12)NC(=O)[C@H](Cc1ccc(O)cc1)NC(=O)[C@H](CO)NC(=O)[C@H](Cc1c[nH]c2ccccc12)NC(=O)[C@H](Cc1c[nH]cn1)NC(=O)[C@@H]1CCC(=O)N1)C(=O)N[C@@H](CCCNC(=N)N)C(=O)N1CCC[C@H]1C(=O)NCC(N)=O` [T, pGlu-His-Trp-Ser-Tyr-D-Trp-Leu-Arg-Pro-Gly-NH2] was tested, and the “Estrous Expression (%)” value [1, 3] was 75.0%, the “Interval from MATRIX withdrawal to Estrus” value (“Interval … to Estrus” for short) [1, 3] was 134.4 h and the “Estrous Expression (%)” value [1, 4] was 81.0%. The “Interval … to Estrus” value [1, 4] was 136.9 h, the “Estrous Expression (%)” value [1, 5] was 86.4% and the “Interval … to Estrus” value [1, 5] was 133.9 h. For the same compound, the “Percentage ovulated by 48 hours” value [2, 6] was 100%, the “Time at which ovulation detected” value [2, 6] was 40 ± 10 h and the “Percentage ovulated by 48 hours” value [2, 7] was 100%. The “Time at which ovulation detected” value [2, 7] was 34 ± 9 h, the “% of Sows Ovulating” value ([2]; 100 mcg T at 120 h, 128 h post-MATRIX, 8 h post-T) was 0.0% and the “% of Sows Ovulating” value ([2]; 100 mcg T at 120 h, 136 h post-MATRIX, 16 h post-T) was 5.0%. For the same compound, the “% of Sows Ovulating” value ([2]; 100 mcg T at 120 h, 144 h post-MATRIX, 24 h post-T) was 20.0%, the “% of Sows Ovulating” value ([2]; 100 mcg T at 120 h, 152 h post-MATRIX, 32 h post-T) was 30.0% and the “% of Sows Ovulating” value ([2]; 100 mcg T at 120 h, 160 h post-MATRIX, 40 h post-T) was 60.0%. The “% of Sows Ovulating” value ([2]; 100 mcg T at 120 h, 168 h post-MATRIX, 48 h post-T) was 95.0%, the “% of Sows Ovulating” value ([2]; 100 mcg T at 120 h, 176 h post-MATRIX, 56 h post-T) was 100.0% and the “Interval from MATRIX Withdrawal to Ovulation” value (shortened to “Interval … to Ovulation”) [2, 3] was 159.2. For the same compound, the “% of Sows Ovulating” value ([2]; 200 mcg T at 120 h, 128 h post-MATRIX, 8 h post-T) was 0.0%, the “% of Sows Ovulating” value ([2]; 200 mcg T at 120 h, 136 h post-MATRIX, 16 h post-T) was 0.0% and the “% of Sows Ovulating” value ([2]; 200 mcg T at 120 h, 144 h post-MATRIX, 24 h post-T) was 23.8%. The “% of Sows Ovulating” value ([2]; 200 mcg T at 120 h, 152 h post-MATRIX, 32 h post-T) was 33.3%, the “% of Sows Ovulating” value ([2]; 200 mcg T at 120 h, 160 h post-MATRIX, 40 h post-T) was 52.4% and the “% of Sows Ovulating” value ([2]; 200 mcg T at 120 h, 168 h post-MATRIX, 48 h post-T) was 95.2%. The “% of Sows Ovulating” value ([2]; 200 mcg T at 120 h, 176 h post-MATRIX, 56 h post-T) was 95.2%, the “Interval … to Ovulation” value [2, 4] was 158.8 and the “% of Sows Ovulating” value ([2]; 400 mcg T at 120 h, 128 h post-MATRIX, 8 h post-T) was 4.5%. The “% of Sows Ovulating” value ([2]; 400 mcg T at 120 h, 136 h post-MATRIX, 16 h post-T) was 9.1%, the “% of Sows Ovulating” value ([2]; 400 mcg T at 120 h, 144 h post-MATRIX, 24 h post-T) was 22.7% and the “% of Sows Ovulating” value ([2]; 400 mcg T at 120 h, 152 h post-MATRIX, 32 h post-T) was 36.4%. The “% of Sows Ovulating” value ([2]; 400 mcg T at 120 h, 160 h post-MATRIX, 40 h post-T) was 63.6%, the “% of Sows Ovulating” value ([2]; 400 mcg T at 120 h, 168 h post-MATRIX, 48 h post-T) was 100.0% and the “% of Sows Ovulating” value ([2]; 400 mcg T at 120 h, 176 h post-MATRIX, 56 h post-T) was 100.0%. The “Interval … to Ovulation” value [2, 5] was 157.1.
